Results on 23 molecules are retold here after patent publication US9708259B2 (Hoffmann-La Roche Inc., priority 2013, dated 2017).

Structures are written as SMILES. Positions count from the first letter of the chain named. Where two headings read alike, the source gives them in different places.

The target of one assay is T1, ratM1 (Rattus norvegicus, UniProt P08482).
T1 construct: expressed in transfected cells; host or cells: CHO cells (stated generally for the assay, not specifically for rat M1)
T1 sequence (P08482 1-460): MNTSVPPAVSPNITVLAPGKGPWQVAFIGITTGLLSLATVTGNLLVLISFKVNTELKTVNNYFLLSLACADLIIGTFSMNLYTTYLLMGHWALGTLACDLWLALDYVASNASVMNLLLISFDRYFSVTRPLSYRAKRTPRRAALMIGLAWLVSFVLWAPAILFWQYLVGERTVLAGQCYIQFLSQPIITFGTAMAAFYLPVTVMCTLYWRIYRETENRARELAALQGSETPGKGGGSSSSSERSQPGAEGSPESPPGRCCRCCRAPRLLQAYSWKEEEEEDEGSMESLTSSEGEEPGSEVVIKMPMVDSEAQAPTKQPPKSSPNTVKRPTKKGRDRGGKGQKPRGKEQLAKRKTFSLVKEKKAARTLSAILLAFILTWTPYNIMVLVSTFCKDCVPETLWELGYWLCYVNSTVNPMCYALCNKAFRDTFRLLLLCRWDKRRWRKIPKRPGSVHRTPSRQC
Put plainly: M1 PAM assay (FLIPR intracellular calcium), rat M1. Type of assay: cell-based. For orientation: Calcium assays in cells follow changes in intracellular calcium, usually with a dye or a luminescent sensor.

Another assay deals with T2, human M1 (Homo sapiens, UniProt P11229).
T2 construct: expressed in transfected cells; host or cells: CHO cells
T2 sequence (P11229 1-460): T1 sequence (P08482 1-460) with V5A, S254T, S309P, K320R, G337A, V413I
Put plainly: M1 PAM assay (FLIPR intracellular calcium), human M1. The format is cell-based. Put shortly: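 CHO cells expressing M1, Fluo-4AM-loaded, in HEPES/probenecid HBSS pH 7.4, 1% DMSO final. Compounds pre-incubated 2 min for agonist activity versus 30 nM acetylcholine control. For PAM activity, acetylcholine EC20 added after the 2 min pre-incubation, then 2 min more before FLIPR intracellular Ca2+ read.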

[1] abbreviates: rat M1, FLIPR Ca2+, second value of the cell, read-out: ratM1 EC50.
Setting [2] is: CHO human M1 cells, FLIPR Ca2+, with EC20 of acetylcholine, first value of the cell, read-out: hM1 EC50.

For `O=C(N[C@H]1CCCC[C@@H]1O)c1cn(Cc2ccc3nccn3c2)c2cccc(F)c12` [Example 145, 4-fluoro-N-((1S,2S)-2-hydroxycyclohexyl)-1-(imidazo[1,2-a]pyridin-6-ylmethyl)-1H-indole-3-carboxamide], the 50% effective concentration (EC50) (usually the concentration at which the effect is half-maximal) on ratM1 came to 0.036 µM; at human M1 it was 0.017 µM.
On to `Cn1cc(-c2ccc(Cn3cc(C(=O)N[C@H]4CCCC[C@@H]4O)c4c(F)c(F)c(F)c(F)c43)c(F)c2)cn1` [Example 26, 4,5,6,7-Tetrafluoro-1-(2-fluoro-4-(1-methyl-1H-pyrazol-4-yl)benzyl)-N-((1S,2S)-2-hydroxycyclohexyl)-1H-indole-3-carboxamide], for which the 50% effective concentration (EC50) on ratM1 (setting [1]) came out at 0.201 µM; on human M1 (setting [2]), 0.0806 µM.
On the same counts, the results for `Cn1cc(-c2ccc(Cn3cc(C(=O)NCC4CCO4)c4c(F)cccc43)cc2)cn1` (stereo not shown) [Example 14, 4-fluoro-1-(4-(1-methyl-1H-pyrazol-4-yl)benzyl)-N-(oxetan-2-ylmethyl)-1H-indole-3-carboxamide] are 0.198 µM and 0.121 µM.
On the same counts, the results for `CNC(=O)c1ccc(Cn2cc(C(=O)NC3CCCOC3)c3c(F)cccc32)cc1` (stereo not shown) [Example 122, 4-fluoro-1-[[4-(methylcarbamoyl)phenyl]methyl]-N-(oxan-3-yl)indole-3-carboxamide] are 0.154 µM and 0.062 µM.
For `Cn1cc(-c2ccc(Cn3nc(C(=O)N[C@H]4CCOC[C@@H]4O)c4c(F)ccc(F)c43)c(F)c2)cn1` [Example 73, 4,7-difluoro-1-(2-fluoro-4-(1-methyl-1H-pyrazol-4-yl)benzyl)-N-((3R,4S)-3-hydroxytetrahydro-2H-pyran-4-yl)-1H-indazole-3-carboxamide] the same measures were 0.0943 µM and 0.0658 µM.
`O=C(N[C@H]1CCCC[C@@H]1O)c1cn(Cc2ccc(N3CCCC3)nc2)c2cccc(F)c12` [Example 162, 4-fluoro-N-((1S,2S)-2-hydroxycyclohexyl)-1-((6-(pyrrolidin-1-yl)pyridin-3-yl)methyl)-1H-indole-3-carboxamide]: the EC50 on ratM1 (setting [1]) was found to be 0.751 µM; on human M1 (setting [2]), 0.214 µM.
Regarding `COc1ccc(F)c2c(C(=O)NC3CCOCC3)cn(Cc3ccc4c(cnn4C)c3)c12` [Example 154, 4-fluoro-7-methoxy-1-((1-methyl-1H-indazol-5-yl)methyl)-N-(tetrahydro-2H-pyran-4-yl)-1H-indole-3-carboxamide], the 50% effective concentration (EC50) on ratM1 turned out to be 0.837 µM; at human M1, 0.272 µM.
Turning to `Cn1cc(-c2ccc(Cn3nc(C(=O)N[C@@H]4CCCC[C@H]4O)c4c(F)cccc43)c(F)c2)cn1` [Example 4, 4-fluoro-1-(2-fluoro-4-(1-methyl-1H-pyrazol-4-yl)benzyl)-N-((1R,2R)-2-hydroxycyclohexyl)-1H-indazole-3-carboxamide], the EC50 on ratM1 (setting [1]) is 1.29 µM; on human M1 (setting [2]), 0.295 µM.
`O=C(N[C@H]1CCCC[C@@H]1O)c1cn(Cc2ccc(F)cc2)c2cccc(F)c12` [Example 42, 4-fluoro-1-(4-fluorobenzyl)-N-((1S,2S)-2-hydroxycyclohexyl)-1H-indole-3-carboxamide]: the EC50 amounted to 0.2 µM at ratM1 and 0.11 µM at human M1.
For `Cn1cc(-c2ccc(Cn3cc(C(=O)N[C@H]4CCCC(F)(F)[C@@H]4O)c4c(F)cccc43)c(F)c2)cn1` [Example 103, N-((1S,2R)-3,3-difluoro-2-hydroxycyclohexyl)-4-fluoro-1-(2-fluoro-4-(1-methyl-1H-pyrazol-4-yl)benzyl)-1H-indole-3-carboxamide], the results for the concentration for a half-maximal effect (EC50) on ratM1 (setting [1]) and on human M1 (setting [2]) were 0.032 µM and 0.007 µM, respectively.
For the molecule `Cn1cc(-c2ccc(Cn3cc(C(=O)N[C@@H]4CCCC[C@H]4O)c4c(F)cccc43)c(F)c2)cn1` [Example 2], the 50% effective concentration (EC50) is 0.208 µM at ratM1 (setting [1]) and 0.039 µM at human M1 (setting [2]).
On the same counts, the results for `Cc1ccn(-c2ccc(Cn3cc(C(=O)N[C@H]4CCCC[C@@H]4O)c4c(F)c(F)ccc43)cc2)n1` [Example 61, 4,5-difluoro-N-((1S,2S)-2-hydroxycyclohexyl)-1-(4-(3-methyl-1H-pyrazol-1-yl)benzyl)-1H-indole-3-carboxamide] are 0.515 µM and 0.343 µM.
For the molecule `Cc1ccc(F)c2c(C(=O)NC3CCOCC3)cn(Cc3ccc4c(cnn4C)c3)c12` [Example 134, 4-fluoro-7-methyl-1-((1-methyl-1H-indazol-5-yl)methyl)-N-(tetrahydro-2H-pyran-4-yl)-1H-indole-3-carboxamide], the EC50 amounted to 0.076 µM at ratM1 and 0.025 µM on human M1.
Take `Cn1cc(-c2ccc(Cn3cc(C(=O)NC4CCOCC4O)c4c(F)c(F)c(F)c(F)c43)cc2)cn1` (single isomer, unassigned) [Example 62, 4,5,6,7-Tetrafluoro-N-((3S,4R) or (3R,4S))-3-hydroxytetrahydro-2H-pyran-4-yl)-1-(4-(1-methyl-1H-pyrazol-4-yl)benzyl)-1H-indole-3-carboxamide]: the figures for the concentration giving a half-maximal response (EC50) at ratM1 (setting [1]) and at human M1 (setting [2]) were 0.563 µM and 0.433 µM, respectively.
As for `NC(=O)Cc1ccc(Cn2cc(C(=O)N[C@H]3CCCC[C@@H]3O)c3c(F)cccc32)cc1` [Example 80, 1-(4-(2-amino-2-oxoethyl)benzyl)-4-fluoro-N-((1S,2S)-2-hydroxycyclohexyl)-1H-indole-3-carboxamide], the results for the EC50 at ratM1 (setting [1]) and at human M1 (setting [2]) were 0.263 µM and 0.11 µM, respectively.
For `CNC(=O)c1ccc(Cn2cc(C(=O)NC3CCC(F)(F)CC3)c3c(F)cccc32)cc1` [Example 117, N-(4,4-difluorocyclohexyl)-4-fluoro-1-[[4-(methylcarbamoyl)phenyl]methyl]indole-3-carboxamide] the same measures were 0.029 µM and 0.014 µM.
For `Cn1cc(-c2ccc(Cn3cc(C(=O)NC[C@H]4CCCO4)c4c(F)cccc43)cc2)cn1` [Example 10, (R)-4-fluoro-1-(4-(1-methyl-1H-pyrazol-4-yl)benzyl)-N-((tetrahydrofuran-2-yl)methyl)-1H-indole-3-carboxamide] the same measures were 0.398 µM and 0.256 µM.
For `O=C(N[C@H]1CCCC[C@@H]1O)c1cn(Cc2ccc(-c3ccn[nH]3)cc2)c2cccc(F)c12` [Example 155, 1-(4-(1H-Pyrazol-5-yl)benzyl)-4-fluoro-N-((1S,2S)-2-hydroxycyclohexyl)-1H-indole-3-carboxamide] the same measures were 0.005 µM and 0.011 µM.
As to `Cn1cc(-c2ccc(Cn3cc(C(=O)N[C@H]4CCOC[C@@H]4O)c4c(F)ccc(C5CC5)c43)cc2)cn1` [Example 106, 7-cyclopropyl-4-fluoro-N-((3R,4S)-3-hydroxytetrahydro-2H-pyran-4-yl)-1-(4-(1-methyl-1H-pyrazol-4-yl)benzyl)-1H-indole-3-carboxamide], the EC50 on ratM1 (setting [1]) is 0.187 µM; on human M1 (setting [2]), 0.189 µM.
On the same counts, the results for `Cn1cc(-c2ccc(Cn3nc(C(=O)N[C@H]4CCCC[C@@H]4O)c4c(F)cccc43)c(F)c2)cn1` [Example 3, 4-fluoro-1-(2-fluoro-4-(1-methyl-1H-pyrazol-4-yl)benzyl)-N-((1S,2S)-2-hydroxycyclohexyl)-1H-indazole-3-carboxamide] are 0.0906 µM and 0.0252 µM.
`Cn1cc(-c2ccc(Cn3cc(C(=O)NC4CCCOC4)c4c(F)cccc43)cc2)cn1` (stereo not shown) [Example 12, 4-fluoro-1-(4-(1-methyl-1H-pyrazol-4-yl)benzyl)-N-(tetrahydro-2H-pyran-3-yl)-1H-indole-3-carboxamide]: the EC50 stood at 0.398 µM at ratM1 (setting [1]) and 0.129 µM at human M1 (setting [2]).
Consider `Cn1cc(-c2ccc(Cn3cc(C(=O)NCC4COC4)c4c(F)cccc43)cc2)cn1` [Example 13, 4-fluoro-1-(4-(1-methyl-1H-pyrazol-4-yl)benzyl)-N-(oxetan-3-ylmethyl)-1H-indole-3-carboxamide], for which the concentration for a half-maximal effect (EC50) at ratM1 (setting [1]) came to 0.25 µM; at human M1 (setting [2]) it was 0.192 µM.
With `Cc1cn(-c2ccc(Cn3cc(C(=O)N[C@H]4CCCC[C@@H]4O)c4c(F)c(F)ccc43)cc2)cn1` [Example 60, 4,5-difluoro-N-((1S,2S)-2-hydroxycyclohexyl)-1-(4-(4-methyl-1H-imidazol-1-yl)benzyl)-1H-indole-3-carboxamide], the figures for the EC50 on ratM1 (setting [1]) and at human M1 (setting [2]) were 0.183 µM and 0.101 µM, respectively.
